Results: ChEMBL document CHEMBL1201862, “PubChem BioAssay data set” (2004)
Calls of active or inactive are those of the source.

Tests used:
[1] = target: T1, Sentrin-specific protease 1 (Homo sapiens, UniProt Q9P0U3); assay: Dose response confirmation of small molecule inhibitors of the catalytic domain of the SUMO protease, SENP1 in a FRET assay.; type: functional; details: read-out: IC50_Mean
T1 sequence (Q9P0U3 whole entry): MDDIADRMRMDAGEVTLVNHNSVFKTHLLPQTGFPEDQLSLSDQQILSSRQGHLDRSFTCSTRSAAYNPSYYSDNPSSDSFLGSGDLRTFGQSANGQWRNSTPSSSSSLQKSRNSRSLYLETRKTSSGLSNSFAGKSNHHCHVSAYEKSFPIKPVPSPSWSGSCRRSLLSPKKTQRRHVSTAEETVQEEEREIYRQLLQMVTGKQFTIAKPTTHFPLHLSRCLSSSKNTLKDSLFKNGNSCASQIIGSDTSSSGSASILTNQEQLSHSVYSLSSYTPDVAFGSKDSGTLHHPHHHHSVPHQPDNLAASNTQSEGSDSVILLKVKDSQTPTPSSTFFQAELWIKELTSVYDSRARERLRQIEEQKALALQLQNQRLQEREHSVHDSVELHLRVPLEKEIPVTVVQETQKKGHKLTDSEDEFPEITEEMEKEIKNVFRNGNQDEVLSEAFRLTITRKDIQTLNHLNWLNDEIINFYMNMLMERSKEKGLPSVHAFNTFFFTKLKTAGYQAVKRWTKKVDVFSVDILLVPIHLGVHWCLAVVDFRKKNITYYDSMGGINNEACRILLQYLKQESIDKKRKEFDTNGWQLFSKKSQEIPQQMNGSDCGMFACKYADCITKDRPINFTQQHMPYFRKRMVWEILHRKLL

[2] = target: T2, Zinc finger protein mex-5 (Caenorhabditis elegans, UniProt Q9XUB2); assay: MEX-5/TCR-2 RNA interaction inhibitors, dose response, biochemical, C. elegans, fluorescence polarization (AID 1960)
T2 sequence (Q9XUB2 whole entry): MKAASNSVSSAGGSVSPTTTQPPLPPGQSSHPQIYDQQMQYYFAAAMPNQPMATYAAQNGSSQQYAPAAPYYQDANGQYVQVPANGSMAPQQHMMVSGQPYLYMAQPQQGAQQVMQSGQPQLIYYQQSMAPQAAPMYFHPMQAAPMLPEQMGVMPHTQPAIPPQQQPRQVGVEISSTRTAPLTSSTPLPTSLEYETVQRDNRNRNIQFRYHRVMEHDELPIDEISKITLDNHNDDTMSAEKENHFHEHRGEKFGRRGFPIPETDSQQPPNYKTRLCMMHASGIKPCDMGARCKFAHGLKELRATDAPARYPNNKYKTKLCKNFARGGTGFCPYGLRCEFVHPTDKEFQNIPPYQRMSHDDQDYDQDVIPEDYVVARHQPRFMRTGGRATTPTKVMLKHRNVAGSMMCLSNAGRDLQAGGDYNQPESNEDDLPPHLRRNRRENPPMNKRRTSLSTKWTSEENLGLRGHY

[3] = target: T3, RNA-binding protein pos-1 (Caenorhabditis elegans, UniProt G5EF15); assay: inhibitors of POS-1/mex-3 RNA binding, dose response, biochemical, fluorescence polarization (AID 1964);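 also: purified POS-1 fused to maltose binding protein made in E. coli; potency of compounds blocking POS-1 binding to fluorescent RNA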
T3 sequence (G5EF15 whole entry): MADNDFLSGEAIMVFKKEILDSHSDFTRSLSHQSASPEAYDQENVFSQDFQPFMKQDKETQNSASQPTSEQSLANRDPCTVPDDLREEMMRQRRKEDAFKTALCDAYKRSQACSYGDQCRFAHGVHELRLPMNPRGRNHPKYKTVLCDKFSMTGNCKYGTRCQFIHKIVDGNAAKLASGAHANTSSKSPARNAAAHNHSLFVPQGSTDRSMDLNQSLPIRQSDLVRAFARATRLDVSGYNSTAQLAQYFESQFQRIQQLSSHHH

[4] = target: T1, Sentrin-specific protease 1; assay: potency of human SENP1 inhibitors, dose response, biochemical, kinetic FRET (AID 651697); type: functional; details: read-out: IC50_Mean
[5] = target: T4, Rac GTPase-activating protein 1 (Homo sapiens, UniProt Q9H0H5); assay: MgcRacGAP GTPase-activating activity inhibitors, confirmation, biochemical, ADP Hunter fluorescence, primary and confirmatory (AID 624330); type: functional
T4 sequence (Q9H0H5 whole entry): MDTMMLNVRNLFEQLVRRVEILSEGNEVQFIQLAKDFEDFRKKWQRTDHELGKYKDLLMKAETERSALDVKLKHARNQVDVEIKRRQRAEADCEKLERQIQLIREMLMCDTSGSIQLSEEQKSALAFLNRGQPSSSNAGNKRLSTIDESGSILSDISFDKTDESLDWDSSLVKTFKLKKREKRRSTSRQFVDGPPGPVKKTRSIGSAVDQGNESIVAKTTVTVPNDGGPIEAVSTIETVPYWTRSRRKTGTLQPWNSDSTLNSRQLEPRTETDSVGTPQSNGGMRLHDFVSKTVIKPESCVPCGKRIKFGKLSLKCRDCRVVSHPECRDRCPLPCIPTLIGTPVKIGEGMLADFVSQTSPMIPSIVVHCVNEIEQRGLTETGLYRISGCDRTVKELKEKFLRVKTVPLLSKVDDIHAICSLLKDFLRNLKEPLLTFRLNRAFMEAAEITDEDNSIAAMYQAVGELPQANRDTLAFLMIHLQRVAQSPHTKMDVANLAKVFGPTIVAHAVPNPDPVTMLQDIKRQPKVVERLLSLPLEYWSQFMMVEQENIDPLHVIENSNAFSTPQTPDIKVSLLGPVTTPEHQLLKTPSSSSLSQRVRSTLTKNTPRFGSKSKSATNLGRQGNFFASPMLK

[6] = target: Hepatocyte nuclear factor 4-alpha (Homo sapiens, UniProt P41235); type: functional, cell-based;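 also: biochemical luminescence-based dose-response counterscreen measuring inhibition of HNF4 dimerization, run alongside a screen for blockers of ABHD5–perilipin-5 interaction; split luciferase complementation of HNF4 fusion proteins in cell lysate measuring dimerization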
[7] = target: T5, Heat shock factor protein 1 (Mus musculus, UniProt P38532); assay: HSF1 potentiators in luciferase reporter cells, confirmation, cell-based, NIH3T3, luminescence, dose retest (AID 435004); type: functional;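 also: stress induced by proteasome inhibitor MG132 added 30 min after compound; luciferase reporter driven by HSF1 response element in NIH3T3 cells; actives raise luminescence as potentiators of the MG132 stress response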
T5 sequence (P38532 whole entry): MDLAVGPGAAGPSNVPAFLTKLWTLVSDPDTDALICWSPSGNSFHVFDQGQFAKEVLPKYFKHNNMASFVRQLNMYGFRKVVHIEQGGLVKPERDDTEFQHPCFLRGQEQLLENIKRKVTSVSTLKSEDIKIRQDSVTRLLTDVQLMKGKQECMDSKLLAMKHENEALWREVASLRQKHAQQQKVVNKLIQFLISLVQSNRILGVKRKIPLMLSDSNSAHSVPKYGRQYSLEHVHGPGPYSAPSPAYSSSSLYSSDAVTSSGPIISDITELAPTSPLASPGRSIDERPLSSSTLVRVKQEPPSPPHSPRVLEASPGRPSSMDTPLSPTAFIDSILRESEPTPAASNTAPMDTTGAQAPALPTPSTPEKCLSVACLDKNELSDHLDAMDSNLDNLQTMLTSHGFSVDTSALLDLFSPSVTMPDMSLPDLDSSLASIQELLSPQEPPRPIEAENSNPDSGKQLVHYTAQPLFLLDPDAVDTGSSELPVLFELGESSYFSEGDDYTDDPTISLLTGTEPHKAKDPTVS

[8] = Luminescence Cell-Based Dose Retest to Confirm Inhibitors of Cancer Stem Cells. [Related pubchem assays (depositor defined):AID2717, AID2721]; type: functional; details: Homo sapiens
Vero = assay: cells; type: functional; details: Chlorocebus sabaeus
[9] = target: T6, Acyl-homoserine lactone acylase PvdQ (Pseudomonas aeruginosa (strain LESB58), UniProt Q9I194); assay: P. aeruginosa PvdQ acylase inhibitors, dose response, biochemical, fluorescence, plate reader and imaging, cherry-picks (AID 493231)
T6 sequence (Q9I194 whole entry): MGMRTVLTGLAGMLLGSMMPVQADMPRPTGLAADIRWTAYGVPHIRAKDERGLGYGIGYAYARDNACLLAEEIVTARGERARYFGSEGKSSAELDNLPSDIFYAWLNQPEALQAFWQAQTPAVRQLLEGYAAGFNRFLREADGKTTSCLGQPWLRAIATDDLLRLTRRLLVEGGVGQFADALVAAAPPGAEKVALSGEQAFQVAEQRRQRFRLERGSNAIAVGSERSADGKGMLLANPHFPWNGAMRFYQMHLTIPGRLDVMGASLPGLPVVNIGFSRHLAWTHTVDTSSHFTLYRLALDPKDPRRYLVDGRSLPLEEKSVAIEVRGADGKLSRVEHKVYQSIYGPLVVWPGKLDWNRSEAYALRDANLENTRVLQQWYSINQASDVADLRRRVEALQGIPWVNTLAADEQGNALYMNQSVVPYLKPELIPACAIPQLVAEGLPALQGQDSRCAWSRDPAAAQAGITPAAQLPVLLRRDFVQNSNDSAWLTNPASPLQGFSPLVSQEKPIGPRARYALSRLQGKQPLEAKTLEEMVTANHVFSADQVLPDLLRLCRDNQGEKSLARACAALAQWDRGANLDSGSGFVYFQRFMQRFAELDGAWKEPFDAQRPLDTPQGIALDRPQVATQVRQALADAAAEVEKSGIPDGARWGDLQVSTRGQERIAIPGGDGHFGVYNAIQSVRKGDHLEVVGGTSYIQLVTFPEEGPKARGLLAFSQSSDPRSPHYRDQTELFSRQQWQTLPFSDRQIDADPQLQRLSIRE

[10] = Luminescence Cell-Based Dose Confirmation HTS to Identify Inhibitors of Platelet Dense Granule Release. [Related pubchem assays: 1663 (Primary HTS), 1678 (Summary of Project)]; type: functional
Beta Lactamase = Beta Lactamase (Pseudomonas aeruginosa, UniProt Q932Y6); assay: beta-lactamase reporter inhibitor potency, dose response, artefact control for NOD2-RIPK2 interaction inhibitor project, BLA reporter cells, FRET fluorescence (AID 651552); type: functional, cell-based
Beta-galactosidase = Beta-galactosidase (Escherichia coli, UniProt Q8VNN2); assay: beta-galactosidase enzyme inhibitors and activators, dose response, artefact control for CCR6 antagonist project, biochemical, E. coli enzyme, set 3 (AID 504712); type: functional
[11] = target: Peroxisome proliferator-activated receptor gamma/Nuclear receptor coactivator 1 (Homo sapiens, UniProt P37231); assay: TR-FRET dose response biochemical High Throughput Screening assay for agonists of the steroid receptor coactivator 1 (SRC-1) recruitment by the peroxisome proliferator-activated receptor gamma (PPAR gamma): non-selective agonists. [Related pubchem assays (depositor defined):AID1300, AID1808, AID504735, AID631]; type: protein assay
[12] = target: Peroxisome proliferator-activated receptor gamma/Nuclear receptor coactivator 2 (Homo sapiens, UniProt P37231); assay: (§1) TR-FRET dose response biochemical High Throughput Screening assay for agonists of the steroid receptor coactivator 2 (SRC-2) recruitment by the peroxisome proliferator-activated receptor gamma (PPAR gamma): non-selective agonists. [Related pubchem assays: 1297, 1032 ]; type: functional
[13] = target: Peroxisome proliferator-activated receptor gamma/Nuclear receptor coactivator 3 (Homo sapiens, UniProt P37231); assay: as §1, with “3 (SRC-3)” for “2 (SRC-2)”, “1301 (Confirmation screen.), 1048 (Primary screen.)]” for “1297, 1032 ]”; type: functional
[14] = Fluorescence-based cell-based high throughput dose response assay for inhibitors of the interaction of nucleotide-binding oligomerization domain containing 2 (NOD2) and the receptor-interacting serine-threonine kinase 2 (RIPK2).; type: functional; details: Homo sapiens
[15] = target: Luciferin 4-monooxygenase (Photinus pyralis, UniProt P08659); assay: firefly luciferase enzyme inhibitors, dose response, biochemical, luminescence (AID 1891)
[16] = target: T7, Sentrin-specific protease 8 (Homo sapiens, UniProt Q96LD8); type: functional
T7 sequence (Q96LD8 whole entry): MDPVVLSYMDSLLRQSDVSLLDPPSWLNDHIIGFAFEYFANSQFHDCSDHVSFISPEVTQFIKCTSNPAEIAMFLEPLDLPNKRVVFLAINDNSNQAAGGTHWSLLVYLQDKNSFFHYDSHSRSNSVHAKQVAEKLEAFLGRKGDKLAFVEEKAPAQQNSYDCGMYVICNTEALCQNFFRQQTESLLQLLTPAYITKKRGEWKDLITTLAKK

[17] = target: T7, Sentrin-specific protease 8; type: functional; remark: listed apart in the source

Sequence of Hepatocyte nuclear factor 4-alpha (P41235 whole entry, the tested form may be a part): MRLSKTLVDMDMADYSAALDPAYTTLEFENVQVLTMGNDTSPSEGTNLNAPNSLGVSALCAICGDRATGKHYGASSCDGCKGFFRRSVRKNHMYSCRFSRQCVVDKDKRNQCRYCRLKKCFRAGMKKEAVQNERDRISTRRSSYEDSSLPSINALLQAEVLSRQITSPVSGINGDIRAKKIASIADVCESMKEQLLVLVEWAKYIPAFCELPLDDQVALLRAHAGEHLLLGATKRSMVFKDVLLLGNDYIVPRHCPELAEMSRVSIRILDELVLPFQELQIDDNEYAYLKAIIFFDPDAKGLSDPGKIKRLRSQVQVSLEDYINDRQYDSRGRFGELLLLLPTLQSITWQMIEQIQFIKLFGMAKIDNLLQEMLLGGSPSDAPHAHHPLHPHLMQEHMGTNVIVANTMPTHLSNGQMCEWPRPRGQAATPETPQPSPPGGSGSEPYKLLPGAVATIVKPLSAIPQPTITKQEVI
Sequence of Beta Lactamase (Q932Y6 whole entry): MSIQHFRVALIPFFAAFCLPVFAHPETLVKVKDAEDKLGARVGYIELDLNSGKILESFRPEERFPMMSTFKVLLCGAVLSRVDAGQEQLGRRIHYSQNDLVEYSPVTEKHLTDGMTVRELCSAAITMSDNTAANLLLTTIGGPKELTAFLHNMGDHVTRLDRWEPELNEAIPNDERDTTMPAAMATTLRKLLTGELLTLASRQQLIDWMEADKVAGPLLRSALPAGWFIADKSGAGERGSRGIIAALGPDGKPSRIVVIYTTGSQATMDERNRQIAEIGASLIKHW
Sequence of Luciferin 4-monooxygenase (P08659 whole entry): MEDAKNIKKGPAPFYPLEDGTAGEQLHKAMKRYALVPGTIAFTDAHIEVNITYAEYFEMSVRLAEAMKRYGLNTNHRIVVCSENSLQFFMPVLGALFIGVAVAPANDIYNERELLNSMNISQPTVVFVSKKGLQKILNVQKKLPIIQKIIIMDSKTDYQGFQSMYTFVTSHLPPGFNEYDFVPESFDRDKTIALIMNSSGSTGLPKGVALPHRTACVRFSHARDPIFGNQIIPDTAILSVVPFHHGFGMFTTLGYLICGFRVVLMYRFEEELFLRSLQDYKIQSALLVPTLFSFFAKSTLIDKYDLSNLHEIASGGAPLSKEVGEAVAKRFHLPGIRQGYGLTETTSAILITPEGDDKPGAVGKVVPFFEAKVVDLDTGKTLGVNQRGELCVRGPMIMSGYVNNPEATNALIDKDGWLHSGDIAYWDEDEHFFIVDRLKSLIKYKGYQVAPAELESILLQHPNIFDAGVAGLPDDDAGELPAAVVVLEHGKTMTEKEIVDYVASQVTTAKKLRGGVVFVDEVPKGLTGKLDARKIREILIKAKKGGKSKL
Sequence of Peroxisome proliferator-activated receptor gamma/Nuclear receptor coactivator 3 (P37231 whole entry, the tested form may be a part): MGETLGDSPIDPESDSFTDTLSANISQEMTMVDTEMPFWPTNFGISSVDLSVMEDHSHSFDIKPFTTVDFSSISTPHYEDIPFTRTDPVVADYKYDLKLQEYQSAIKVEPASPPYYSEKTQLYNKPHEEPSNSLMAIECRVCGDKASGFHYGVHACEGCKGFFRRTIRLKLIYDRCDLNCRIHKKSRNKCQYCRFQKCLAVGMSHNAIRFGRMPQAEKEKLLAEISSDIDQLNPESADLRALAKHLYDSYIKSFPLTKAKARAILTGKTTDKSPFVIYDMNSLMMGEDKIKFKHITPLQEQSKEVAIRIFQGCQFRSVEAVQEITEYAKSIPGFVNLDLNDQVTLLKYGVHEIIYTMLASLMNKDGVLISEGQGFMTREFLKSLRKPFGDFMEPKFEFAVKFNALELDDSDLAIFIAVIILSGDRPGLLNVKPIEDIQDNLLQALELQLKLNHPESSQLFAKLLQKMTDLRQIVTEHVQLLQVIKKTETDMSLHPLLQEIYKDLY
Sequence of Peroxisome proliferator-activated receptor gamma/Nuclear receptor coactivator 3 (Q9Y6Q9 whole entry, further chain, the tested form may be a part): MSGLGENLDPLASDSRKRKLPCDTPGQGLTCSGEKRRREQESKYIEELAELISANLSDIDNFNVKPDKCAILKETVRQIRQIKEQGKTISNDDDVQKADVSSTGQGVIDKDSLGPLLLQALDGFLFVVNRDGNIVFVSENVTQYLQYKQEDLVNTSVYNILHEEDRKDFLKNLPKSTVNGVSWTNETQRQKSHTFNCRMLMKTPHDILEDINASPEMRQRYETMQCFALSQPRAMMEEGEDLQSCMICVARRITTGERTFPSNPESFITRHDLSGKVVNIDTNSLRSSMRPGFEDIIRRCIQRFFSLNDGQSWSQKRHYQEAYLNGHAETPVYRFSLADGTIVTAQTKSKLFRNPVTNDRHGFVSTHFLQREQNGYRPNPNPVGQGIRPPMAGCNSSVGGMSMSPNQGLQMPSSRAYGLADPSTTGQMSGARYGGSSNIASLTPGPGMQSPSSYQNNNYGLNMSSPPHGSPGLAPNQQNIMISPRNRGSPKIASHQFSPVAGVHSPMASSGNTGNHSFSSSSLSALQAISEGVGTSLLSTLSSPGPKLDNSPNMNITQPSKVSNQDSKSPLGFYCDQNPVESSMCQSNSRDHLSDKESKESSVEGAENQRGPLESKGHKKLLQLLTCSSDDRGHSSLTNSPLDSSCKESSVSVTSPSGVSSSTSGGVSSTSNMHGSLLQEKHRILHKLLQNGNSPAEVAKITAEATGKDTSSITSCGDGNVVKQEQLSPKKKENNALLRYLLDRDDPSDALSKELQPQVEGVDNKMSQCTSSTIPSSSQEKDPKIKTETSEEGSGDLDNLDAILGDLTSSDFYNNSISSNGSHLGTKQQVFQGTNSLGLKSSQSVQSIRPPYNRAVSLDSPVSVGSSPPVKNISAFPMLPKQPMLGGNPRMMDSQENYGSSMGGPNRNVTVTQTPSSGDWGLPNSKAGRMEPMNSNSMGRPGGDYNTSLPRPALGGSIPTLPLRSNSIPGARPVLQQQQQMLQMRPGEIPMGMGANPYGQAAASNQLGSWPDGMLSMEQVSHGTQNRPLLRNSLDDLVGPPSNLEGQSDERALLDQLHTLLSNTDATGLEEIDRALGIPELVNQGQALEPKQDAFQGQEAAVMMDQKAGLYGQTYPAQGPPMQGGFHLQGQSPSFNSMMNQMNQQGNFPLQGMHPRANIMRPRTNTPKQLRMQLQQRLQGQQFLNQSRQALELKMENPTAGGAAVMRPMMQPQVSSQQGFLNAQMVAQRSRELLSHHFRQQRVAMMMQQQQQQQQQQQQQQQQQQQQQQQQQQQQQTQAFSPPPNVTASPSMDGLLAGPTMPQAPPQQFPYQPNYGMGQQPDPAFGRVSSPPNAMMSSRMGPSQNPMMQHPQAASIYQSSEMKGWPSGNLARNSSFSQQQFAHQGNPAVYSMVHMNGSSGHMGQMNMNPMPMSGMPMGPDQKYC
Sequence of Beta-galactosidase (Q8VNN2 whole entry): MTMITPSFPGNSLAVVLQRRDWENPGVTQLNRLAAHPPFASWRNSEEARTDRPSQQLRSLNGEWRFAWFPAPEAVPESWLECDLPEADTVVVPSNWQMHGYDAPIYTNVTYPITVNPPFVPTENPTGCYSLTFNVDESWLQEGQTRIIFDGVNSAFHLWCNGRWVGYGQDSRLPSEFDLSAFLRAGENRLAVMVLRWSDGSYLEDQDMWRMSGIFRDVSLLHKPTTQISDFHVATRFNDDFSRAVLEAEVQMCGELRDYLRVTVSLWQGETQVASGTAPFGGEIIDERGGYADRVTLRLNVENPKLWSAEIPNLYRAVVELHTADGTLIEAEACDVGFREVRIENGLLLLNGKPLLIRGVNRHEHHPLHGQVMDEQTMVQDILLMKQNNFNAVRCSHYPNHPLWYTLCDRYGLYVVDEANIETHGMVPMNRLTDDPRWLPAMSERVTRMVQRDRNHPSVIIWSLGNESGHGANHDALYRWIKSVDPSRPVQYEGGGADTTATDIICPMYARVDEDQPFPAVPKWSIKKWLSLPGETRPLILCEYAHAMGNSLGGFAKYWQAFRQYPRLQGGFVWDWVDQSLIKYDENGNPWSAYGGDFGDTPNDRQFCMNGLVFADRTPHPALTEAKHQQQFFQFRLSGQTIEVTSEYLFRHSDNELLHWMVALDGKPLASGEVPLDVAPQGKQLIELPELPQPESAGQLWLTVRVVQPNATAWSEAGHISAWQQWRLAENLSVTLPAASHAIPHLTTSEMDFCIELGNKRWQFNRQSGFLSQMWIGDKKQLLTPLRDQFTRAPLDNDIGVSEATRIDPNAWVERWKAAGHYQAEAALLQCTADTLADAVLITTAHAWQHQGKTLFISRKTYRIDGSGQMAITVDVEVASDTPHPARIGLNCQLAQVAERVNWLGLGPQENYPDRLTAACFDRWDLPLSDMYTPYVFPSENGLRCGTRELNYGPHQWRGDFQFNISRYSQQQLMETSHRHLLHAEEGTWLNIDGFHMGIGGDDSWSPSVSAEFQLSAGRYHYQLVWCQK

OC1=C2Sc3ccc(Cl)cc3N=C2CCC1
IC50 [1]: 17.1 µM (active)
EC50 [2]: 8.9 µM (inconclusive)
EC50 [3]: 18.4 µM (active)
IC50 [4]: 13.7 µM (active)
IC50 [5]: 42 µM (active)

CCOC(=O)/C(=C\c1ccc(Cl)cc1)c1nc(O)c2c(C)c(C)sc2n1
IC50 [6]: 1.56 µM (active)
EC50 [7]: > 260 µM (inconclusive)
AC50 [8]: 0.981 µM (active)
CC50 (Vero): 16.5 µM (active)

O=C1/C(=C/c2ccc([N+](=O)[O-])cc2)Oc2cc(O)ccc21
IC50 [1]: 10.1 µM (active)
IC50 [4]: 38.4 µM (inactive)
EC50 [7]: 175 µM (active)
AC50 [9]: 53.7 µM (active)

Cc1ccccc1N1C(=O)CC(Sc2nnc(-c3ccccc3)o2)C1=O (centres undefined)
EC50 [10]: > 112 µM (not active)
IC50 (Beta Lactamase): 12.7 µM (inactive)
IC50 (Beta-galactosidase): > 66.6 µM (inactive)
EC50 [7]: 57.4 µM (active)
EC50 [11]: > 26.5 µM (inactive)
EC50 [12]: 26.2 µM (not active)
EC50 [13]: > 79.4 µM (not active)
IC50 [14]: 4.12 µM (active)
EC50 [15]: > 112 µM (not active)

C[C@@H](OC(=O)c1nc[nH]c1C(=O)N1CCc2ccccc2C1)c1ccccc1
IC50 [16]: 80.9 µM (inactive)
IC50 [17]: 6.73 µM (active)
